Data as given in PubChem BioAssay (NCI).
Where “and” joins values, the source holds several entries; their conditions need not be identical. Equal values may be shown once.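 Where inhibition never reached the appropriate level, the endpoint shown equals the highest concentration tested. Otherwise, values were interpolated linearly from a five-concentration, 48-hour dose response in 96-well plates. Abbreviation: GI50, concentration required for 50% inhibition of growth. At the TGI there is no net growth.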

What was measured:
Test in all cases: inhibition of tumour cell growth, NCI panel, 48 h
RPMI-8226 leukemia = test system: RPMI-8226 leukemia
HCC-2998 colon = test system: HCC-2998 colon
UACC-257 melanoma = test system: UACC-257 melanoma
RXF 393 renal = test system: RXF 393 renal
KM12 colon = test system: KM12 colon
MOLT-4 leukemia = test system: MOLT-4 leukemia
XF 498 CNS = test system: XF 498 CNS
SF-268 CNS = test system: SF-268 CNS
DLD-1 colon = test system: DLD-1 colon
NCI-H23 lung = test system: NCI-H23 lung
UO-31 renal = test system: UO-31 renal
DMS 114 small cell lung = test system: DMS 114 small cell lung

Structure (SMILES) | TGI (RPMI-8226 leukemia) [µM] | TGI (HCC-2998 colon) [µM] | TGI (UACC-257 melanoma) | TGI (RXF 393 renal) [µM] | TGI (KM12 colon) | TGI (MOLT-4 leukemia) | TGI (XF 498 CNS) | TGI (SF-268 CNS) | TGI (DLD-1 colon) | TGI (NCI-H23 lung) | TGI (UO-31 renal) [µM] | GI50 (DMS 114 small cell lung) [µM] | TGI (DMS 114 small cell lung) | GI50 (RPMI-8226 leukemia) [µM] | GI50 (UACC-257 melanoma) [µM] | GI50 (RXF 393 renal) [µM] | GI50 (KM12 colon) [µM] | GI50 (XF 498 CNS) [µM] | GI50 (SF-268 CNS) [µM] | GI50 (NCI-H23 lung) [µM]
CCCCCCCC/C=C\CCCCCCCCCCCC(=O)O | 110 | > 85.8 | > 125 µM | 18.4 | 70.8 µM | 95.2 µM | 2.82 µM | > 125 µM | > 125 µM | 80.8 µM | > 125 |  |  |  |  |  |  |  |  | 
N=c1nnc2ccc(Cl)cc2n1O | > 100 | > 100 | > 100 µM | 95.2 | > 100 µM | > 100 µM |  | > 100 µM |  | > 100 µM | > 100 |  |  |  |  |  |  |  |  | 
O=C1C=C[C@@H](COC2OC(CO)C(O)C(O)C2O)O1 (some centres not stated) |  | > 100 | 22.8 µM and 27.7 µM | 8.82 | 11.6 µM and 17.4 µM | 21.1 µM and 48.6 µM | 31.6 µM and 34.5 µM | 17.8 µM and 62.6 µM | 17.9 µM and 19.1 µM | 19.2 µM and 29.7 µM | 85 | 3.73 | 14.2 µM and 28.5 µM | 2.45 | 10.2 | 2.72 | 3.16 | 14.3 | 4.59 | 5.12
Nc1c(S(=O)(=O)O)cc2cc(S(=O)(=O)O)ccc2c1N=Nc1ccc(-c2ccc(N=Nc3c(N)c(S(=O)(=O)O)cc4cc(S(=O)(=O)O)ccc34)c(S(=O)(=O)O)c2)cc1 | > 100 | > 100 | > 100 µM | > 100 | > 100 µM | > 100 µM | > 100 µM | > 100 µM | > 100 µM | > 100 µM | > 100 |  | > 100 µM |  |  |  |  |  |  | 
CCN(CC)CCNC(=O)c1cc2cc(NC(=O)c3cc4cc([N+](=O)[O-])ccc4[nH]3)ccc2[nH]1 | 9.63 | > 73.6 | > 87.1 µM | > 100 |  | > 100 µM |  | > 100 µM |  | > 100 µM | > 100 |  |  |  |  |  |  |  |  | 
Cc1ccc(NC(=O)CC2Sc3ccccc3NC2=O)cc1C (configuration not stated) | > 100 | > 100 | > 100 µM | > 100 | > 100 µM | > 100 µM | > 100 µM | > 100 µM | > 100 µM | > 100 µM | > 100 |  | > 100 µM |  |  |  |  |  |  | 
Nc1nc(SCCC/C=C/I)nc2c1ncn2C1OC(COP(=O)(O)O)C(O)C1O (configuration not stated) |  | > 100 | > 100 µM | > 100 | > 100 µM | > 100 µM | > 100 µM | > 100 µM | > 100 µM | > 100 µM |  |  | > 100 µM |  |  |  |  |  |  | 
N#C/C(=C1/Sc2c(nc[nH]c2=O)N1c1ccccc1)c1nc2ccccc2[nH]1 | > 100 | > 100 | > 100 µM |  | > 100 µM | > 100 µM | > 100 µM | > 100 µM | > 100 µM | > 100 µM | > 100 |  | > 100 µM |  |  |  |  |  |  | 
Oc1ccc(-c2nc3ccc(Br)cc3s2)cc1 | 40.2 |  | 51.1 µM | > 100 | 41.6 µM | > 100 µM |  | 57.4 µM |  | 76 µM | 44.4 |  |  |  |  |  |  |  |  | 
CC1=C(Cl)C=CP(=O)(Oc2ccccc2)C1 (configuration not stated) |  | > 100 | > 100 µM |  | > 100 µM | > 10 µM | > 100 µM | > 100 µM |  | > 100 µM | > 100 |  | 90.9 µM |  |  |  |  |  |  | 
COc1ccc(/C=c2\sc3n(c2=O)CCN=3)cc1 |  | > 100 | > 100 µM | > 100 | > 100 µM | > 100 µM |  |  | > 100 µM | > 100 µM | > 100 |  |  |  |  |  |  |  |  | 
